Our source for the Kd values is PubChem BioAssay AID1549 (Sanford-Burnham Center for Chemical Genomics, 2009).

Active and inactive are the calls of the source. The rule behind the calls is not given here.

This test has as its target Influenza A virus M2 proton channel (A/TW/4845/1999 H1N1). As to the kind of experiment: M2 proton channel binding, NMR based, influenza A virus H1N1 strain (AID 1549). To be noted: NMR binding screen, M2 protein.
With `C[C@@H]1OC(O[C@H]2C(O[C@H]3CC[C@@]4(C)C(CC[C@]5(C)C4CC=C4C6CC(C)(C)CC[C@]6(C(=O)O)CC[C@]45C)[C@]3(C)CO)OC[C@H](O)[C@@H]2O)[C@H](O)[C@H](O)[C@H]1O` (some centres undefined), the Kd – broadly, the constant that tells how readily two partners part at equilibrium – is > 4 mM (inactive).

For the compound `Cc1nc2ccc(C(=O)O)cc2nc1C`, the Kd was > 4 mM (inactive).

Turning to `CC1=CCCC2C1(C)CCC(C)C2(C)CC/C(C)=C/C[n+]1cn(C)c2c(N)ncnc21` (centres undefined), the Kd was > 4 mM (inactive).

For the compound `Cc1oc(-c2ccccc2)cc1CO`, the Kd is > 4 mM (inactive).

On to `CCOC(=O)C(C)c1n[nH]c(=O)c2ccccc12` (centres undefined), for which the Kd is > 4 mM (inactive).

Take `NCc1csc(-c2cccs2)n1`: the Kd was > 4 mM (inactive).

In the case of `O=C(Nc1ccc(N2CCCC2=O)cc1)c1cccc(F)c1`, the Kd was > 4 mM (inactive).

In the case of `COc1ccc(C(=O)NCC(=O)O)cc1`, the Kd was > 4 mM (inactive).

`NCc1ccc2c(c1)OCCCO2`: the Kd is > 4 mM (inactive).

In the case of `OC1CCC(C(F)(F)F)CC1` (centres undefined), the Kd was > 4 mM (inactive).

`C[C@@H]1CCC2[C@](C)(CO)[C@@H](O)CC[C@]2(C)[C@@]12CC[C@@](CO)(CCO)O2` (some centres undefined): the Kd was > 4 mM (inactive).

Turning to `C[C@@H]1CC[C@@]23CCC4(C)[C@@](C=CC5[C@@]6(C)CCC(=O)C(C)(C)C6CC[C@]54C)(OC2=O)C3[C@H]1C` (some centres undefined), the Kd was > 4 mM (inactive).

Regarding `Cc1nn(C)c(N2CCOCC2)c1N`, the Kd is > 4 mM (inactive).

Take `NC(=O)c1ccccc1NC(=O)C1CC1`: the Kd was > 4 mM (inactive).

For `S=C(Nc1ccc2nccnc2c1)N1CCOCC1`, the Kd is > 4 mM (inactive).

For the compound `CC(=O)Nc1cccc(-c2nnc3n2CC(C)S3)c1` (centres undefined), the Kd was > 4 mM (inactive).

As to `COc1ccc2[nH]c(O)c(NC(C)=O)c2c1`, the Kd is > 4 mM (inactive).

On to `NCCc1c[nH]c2ccccc12`, for which the Kd was > 4 mM (inactive).

As for `Nc1ccc(S(=O)(=O)N2CCOCC2)cc1`, the Kd is > 4 mM (inactive).

For the compound `c1cnc(N2CCNCC2)nc1`, the Kd is > 4 mM (inactive).

Consider `COc1ccc(-c2oc3ccccc3c(=O)c2O)cc1OC`, for which the Kd was > 4 mM (inactive).

Turning to `COc1ccccc1/C=C/CN1CCOCC1`, the Kd was > 4 mM (inactive).

Regarding `Cc1nc(-c2ccc(CO)s2)cs1`, the Kd is > 4 mM (inactive).

On to `Cc1cccc(N2C(=O)CCC2=O)n1`, for which the Kd is > 4 mM (inactive).

`COc1cc2c(cc1OC)C1=C(C#N)CCC(=O)N1CC2`: the Kd was > 4 mM (inactive).

Turning to `OC(c1ccccc1)c1ccccn1` (centres undefined), the Kd was > 4 mM (inactive).

Regarding `OC[C@H]1O[C@@H](O[C@H]2[C@H](O)[C@@H](O)[C@@H](O)O[C@@H]2CO)[C@H](O)[C@@H](O)[C@@H]1O`, the Kd is > 4 mM (inactive).

`O=C1N/C(=N\c2ccccn2)SC1Cc1ccccc1` (centres undefined): the Kd is > 4 mM (inactive).

In the case of `C=C1CCC2C(CC2(C)C)C(=C)CC/C1=N/O` (centres undefined), the Kd was > 4 mM (inactive).

In the case of `CC1CC[C@@]2(OC1)O[C@H]1CC3C4CC[C@@H]5C[C@@H](O)CC[C@]5(C)C4CC[C@]3(C)[C@H]1[C@@H]2C` (some centres undefined), the Kd was > 4 mM (inactive).

Turning to `COc1ccc2[nH]cc(CCNC(C)=O)c2c1`, the Kd is > 4 mM (inactive).

Consider `COC(=O)C1CCc2ccccc2N1` (centres undefined), for which the Kd was > 4 mM (inactive).

On to `CCCCCc1c2c(cc(O)c1C(=O)O)OC(=O)c1c(cc(OC)cc1C(=O)CCCC)O2`, for which the Kd was > 4 mM (inactive).

On to `CN1CCC(N(C)C2CCN(C)CC2)CC1`, for which the Kd was > 4 mM (inactive).

`O=C(Nn1cnnc1)c1csc2ccccc12`: the Kd was > 4 mM (inactive).

In the case of `Cn1c(=O)c2[nH]cnc2n(C)c1=O`, the Kd was > 4 mM (inactive).

Regarding `CC12CN([N+](=O)[O-])C3(C(N)=O)CC1CCC23C` (centres undefined), the Kd is > 4 mM (inactive).

For `CC(C)(C)NC(=O)N1CCC(C(=O)O)CC1`, the Kd was > 4 mM (inactive).

`CC(=O)c1c(O)c(C)c(O)c2c1OC1=CC(=O)C(C(C)=O)C(=O)C12C` (centres undefined): the Kd was > 4 mM (inactive).

As for `O=C(CNC(=O)c1cccs1)NC1=NCCS1`, the Kd is > 4 mM (inactive).

`O=c1cc(-c2ccc(O)cc2)oc2cc(O)cc(O)c12`: the Kd is > 4 mM (inactive).

For `O=C(O)c1ccc(-c2cccs2)cc1`, the Kd was > 4 mM (inactive).

Turning to `O=C(O)Cn1cc(C(=O)C2CC2)c2ccccc21`, the Kd is > 4 mM (inactive).

Turning to `CN1CCN(CC(O)c2ccccc2)CC1` (centres undefined), the Kd was > 4 mM (inactive).
